Our source for the IC50 values is patent US20230242585A1, “IMMUNOMODULATORS” (Bristol-Myers Squibb Company, priority 2020, published 2023).

Starred links: 1 amine or outer side, 2 acyl side, 3 side chain; linkers in the order of their positions; H or OH if unused. Positions of bridges follow the written chain, without caps; N, C: chain ends. Non-standard residues stand in square brackets, D forms with d. Residues, ends and D or L forms follow the SMILES beside them. X27 = O=C([C@H](CNC[C@H](O)[C@@H](O)[C@H](O[C@@H]1O[C@H](CO)[C@H](O)[C@H](O)[C@H]1O)[C@H](O)CO)N[*:1])[*:2]; X63 = O=C([C@H](CCNC[C@H](O)[C@@H](O)[C@@H](O)[C@H](O)CO)N[*:1])[*:2]; X9 = O=C([C@H](CCNC[C@@H](O)[C@@H](O)[C@@H](O)[C@H](O)CO)N[*:1])[*:2]; X11 = O=C([C@H](CNC[C@H](O)[C@@H](O)[C@@H](O)[C@H](O)CO)N[*:1])[*:2]; X8 = O=C([C@H](CNC[C@@H](O)[C@@H](O)[C@@H](O)[C@H](O)CO)N[*:1])[*:2]; Trp(1-CH2COOH) = N[C@@H](Cc1cn(CC(=O)O)c2ccccc12)C(=O)O; X65 = O=C([C@H](CCNCc1ccccc1-c1ccc(Cl)cc1)N[*:1])[*:2]; X57 = COc1cc2cccc(OC)c2cc1CNCC[C@H](N[*:1])C(=O)[*:2]; X64 = O=C([C@H](CNCc1ccccc1-c1ccc(Cl)cc1)N[*:1])[*:2]; X36 = COc1cc2cccc(OC)c2cc1CNC[C@H](N[*:1])C(=O)[*:2]; X16 = O=C([C@H](CCNCC(O)C(O)C(O)CO)N[*:1])[*:2]; X15 = O=C([C@H](CNCC(O)C(O)C(O)CO)N[*:1])[*:2]; X17 = O=C([C@H](CNCc1cncc2ccccc12)N[*:1])[*:2]; X23 = O=C([C@H](CCNCc1cc2ccccc2o1)N[*:1])[*:2]; X22 = O=C([C@H](CNCc1cc2ccccc2o1)N[*:1])[*:2]; X61 = O=C([C@H](CCNCc1ccccc1O)N[*:1])[*:2]; X60 = O=C([C@H](CNCc1ccccc1O)N[*:1])[*:2]; Hyp = O=C(O)[C@@H]1C[C@@H](O)CN1; NMeNle = CCCC[C@H](NC)C(=O)O; NMeA = CN[C@@H](C)C(=O)O; Dab = NCC[C@H](N)C(=O)O

In the experiment the target is T1, PD-1/PD-L1 (Homo sapiens, UniProt Q9NZQ7).
T1 construct: TVMV protease site (linker) (C); made in house; host or cells: HEK293T cells
T1 sequence (Q9NZQ7 18-239): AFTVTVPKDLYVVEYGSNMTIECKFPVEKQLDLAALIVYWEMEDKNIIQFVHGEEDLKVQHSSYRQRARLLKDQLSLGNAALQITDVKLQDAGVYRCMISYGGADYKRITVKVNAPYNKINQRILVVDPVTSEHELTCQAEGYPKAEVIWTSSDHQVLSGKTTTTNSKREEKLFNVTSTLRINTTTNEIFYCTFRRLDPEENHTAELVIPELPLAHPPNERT
In words: PD-1/PD-L1 Homogenous Time-Resolved Fluorescence (HTRF) binding assay. To be noted: PD-L1-His 10 nM, PD-1-Ig 20 nM. In short, it runs like this: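 Compounds preincubated 15 min with PD-L1-His (residues 18-239, 10 nM) in dPBS with 0.1% BSA, 0.05% Tween-20, then PD-1-Ig (residues 25-167, 20 nM) for 15 min. Eu-cryptate anti-Ig (1 nM) and APC anti-His (20 nM) equilibrated 30 min; 665/620 nm ratio read, IC50 derived.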
`CCCC[C@H]1C(=O)N(C)[C@@H](CCCC)C(=O)N[C@@H](CC(C)C)C(=O)N[C@H](C(=O)NCC(N)=O)CSCC(=O)N[C@@H](Cc2ccc(O)cc2)C(=O)N(C)[C@@H](C)C(=O)N[C@@H](CC(N)=O)C(=O)N2CCC[C@H]2C(=O)N[C@@H](CNC[C@@H](O)[C@@H](O)[C@@H](O)[C@H](O)CO)C(=O)N[C@@H](CC(C)C)C(=O)N2C[C@H](O)C[C@H]2C(=O)N[C@@H](Cc2c[nH]c3ccccc23)C(=O)N[C@@H](CCNC[C@@H](O)[C@@H](O)[C@@H](O)[C@H](O)CO)C(=O)N[C@@H](Cc2cn(CC(=O)O)c3ccccc23)C(=O)N1C` [Example 2036] ({CH2CO}-Y[NMeA]NP[X8]L[Hyp]W[X9][Trp(1-CH2COOH)][NMeNle][NMeNle]LCG-NH2; thioether N-14): the IC50 (commonly the concentration that gives 50% inhibition) was 4.9 nM. For `CCCC[C@H]1C(=O)N(C)[C@@H](CCCC)C(=O)N[C@@H](CC(C)C)C(=O)N[C@H](C(=O)NCC(N)=O)CSCC(=O)N[C@@H](Cc2ccc(O)cc2)C(=O)N(C)[C@@H](C)C(=O)N[C@@H](CC(N)=O)C(=O)N2CCC[C@H]2C(=O)N[C@@H](CNC[C@H](O)[C@@H](O)[C@H](O[C@@H]2O[C@H](CO)[C@H](O)[C@H](O)[C@H]2O)[C@H](O)CO)C(=O)N[C@@H](CC(C)C)C(=O)N2C[C@H](O)C[C@H]2C(=O)N[C@@H](Cc2c[nH]c3ccccc23)C(=O)N[C@@H](CCN)C(=O)N[C@@H](Cc2cn(CC(=O)O)c3ccccc23)C(=O)N1C` [Example 2013] ({CH2CO}-Y[NMeA]NP[X27]L[Hyp]W[Dab][Trp(1-CH2COOH)][NMeNle][NMeNle]LCG-NH2; thioether N-14) the value was 9.7 nM.

Compound `CCCC[C@H]1C(=O)N(C)[C@@H](CCCC)C(=O)N[C@@H](CC(C)C)C(=O)N[C@H](C(=O)NCC(N)=O)CSCC(=O)N[C@@H](Cc2ccc(O)cc2)C(=O)N(C)[C@@H](C)C(=O)N[C@@H](CC(N)=O)C(=O)N2CCC[C@H]2C(=O)N[C@@H](CNCc2cc3ccccc3o2)C(=O)N[C@@H](CC(C)C)C(=O)N2C[C@H](O)C[C@H]2C(=O)N[C@@H](Cc2c[nH]c3ccccc23)C(=O)N[C@@H](CCNCc2cc3ccccc3o2)C(=O)N[C@@H](Cc2cn(CC(=O)O)c3ccccc23)C(=O)N1C` [Example 1010] ({CH2CO}-Y[NMeA]NP[X22]L[Hyp]W[X23][Trp(1-CH2COOH)][NMeNle][NMeNle]LCG-NH2; thioether N-14) came in with an IC50 of 12 nM. In the case of `CCCC[C@H]1C(=O)N(C)[C@@H](CCCC)C(=O)N[C@@H](CC(C)C)C(=O)N[C@H](C(=O)NCC(N)=O)CSCC(=O)N[C@@H](Cc2ccc(O)cc2)C(=O)N(C)[C@@H](C)C(=O)N[C@@H](CC(N)=O)C(=O)N2CCC[C@H]2C(=O)N[C@@H](CNCc2ccccc2O)C(=O)N[C@@H](CC(C)C)C(=O)N2C[C@H](O)C[C@H]2C(=O)N[C@@H](Cc2c[nH]c3ccccc23)C(=O)N[C@@H](CCNCc2ccccc2O)C(=O)N[C@@H](Cc2cn(CC(=O)O)c3ccccc23)C(=O)N1C` [Example 1021] ({CH2CO}-Y[NMeA]NP[X60]L[Hyp]W[X61][Trp(1-CH2COOH)][NMeNle][NMeNle]LCG-NH2; thioether N-14), the IC50 was found to be 7.6 nM. The value for `CCCC[C@H]1C(=O)N(C)[C@@H](CCCC)C(=O)N[C@@H](CC(C)C)C(=O)N[C@H](C(=O)NCC(N)=O)CSCC(=O)N[C@@H](Cc2ccc(O)cc2)C(=O)N(C)[C@@H](C)C(=O)N[C@@H](CC(N)=O)C(=O)N2CCC[C@H]2C(=O)N[C@@H](CNCc2ccccc2-c2ccc(Cl)cc2)C(=O)N[C@@H](CC(C)C)C(=O)N2C[C@H](O)C[C@H]2C(=O)N[C@@H](Cc2c[nH]c3ccccc23)C(=O)N[C@@H](CCNCc2ccccc2-c2ccc(Cl)cc2)C(=O)N[C@@H](Cc2cn(CC(=O)O)c3ccccc23)C(=O)N1C` [Example 1001] ({CH2CO}-Y[NMeA]NP[X64]L[Hyp]W[X65][Trp(1-CH2COOH)][NMeNle][NMeNle]LCG-NH2; thioether N-14) was 14 nM; that for `CCCC[C@H]1C(=O)N(C)[C@@H](CCCC)C(=O)N[C@@H](CC(C)C)C(=O)N[C@H](C(=O)NCC(N)=O)CSCC(=O)N[C@@H](Cc2ccc(O)cc2)C(=O)N(C)[C@@H](C)C(=O)N[C@@H](CC(N)=O)C(=O)N2CCC[C@H]2C(=O)N[C@@H](CNC[C@@H](O)[C@@H](O)[C@@H](O)[C@H](O)CO)C(=O)N[C@@H](CC(C)C)C(=O)N2C[C@H](O)C[C@H]2C(=O)N[C@@H](Cc2c[nH]c3ccccc23)C(=O)N[C@@H](CCN)C(=O)N[C@@H](Cc2cn(CC(=O)O)c3ccccc23)C(=O)N1C` [Example 2022] ({CH2CO}-Y[NMeA]NP[X8]L[Hyp]W[Dab][Trp(1-CH2COOH)][NMeNle][NMeNle]LCG-NH2; thioether N-14) was 8.6 nM; that for `CCCC[C@H]1C(=O)N(C)[C@@H](CCCC)C(=O)N[C@@H](CC(C)C)C(=O)N[C@H](C(=O)NCC(N)=O)CSCC(=O)N[C@@H](Cc2ccc(O)cc2)C(=O)N(C)[C@@H](C)C(=O)N[C@@H](CC(N)=O)C(=O)N2CCC[C@H]2C(=O)N[C@@H](CNCc2cncc3ccccc23)C(=O)N[C@@H](CC(C)C)C(=O)N2C[C@H](O)C[C@H]2C(=O)N[C@@H](Cc2c[nH]c3ccccc23)C(=O)N[C@@H](CCN)C(=O)N[C@@H](Cc2cn(CC(=O)O)c3ccccc23)C(=O)N1C` [Example 1019] ({CH2CO}-Y[NMeA]NP[X17]L[Hyp]W[Dab][Trp(1-CH2COOH)][NMeNle][NMeNle]LCG-NH2; thioether N-14) was 7.9 nM.

On to `CCCC[C@H]1C(=O)N(C)[C@@H](CCCC)C(=O)N[C@@H](CC(C)C)C(=O)N[C@H](C(=O)NCC(N)=O)CSCC(=O)N[C@@H](Cc2ccc(O)cc2)C(=O)N(C)[C@@H](C)C(=O)N[C@@H](CC(N)=O)C(=O)N2CCC[C@H]2C(=O)N[C@@H](CNCc2cc3c(OC)cccc3cc2OC)C(=O)N[C@@H](CC(C)C)C(=O)N2C[C@H](O)C[C@H]2C(=O)N[C@@H](Cc2c[nH]c3ccccc23)C(=O)N[C@@H](CCNCc2cc3c(OC)cccc3cc2OC)C(=O)N[C@@H](Cc2cn(CC(=O)O)c3ccccc23)C(=O)N1C` [Example 1011] ({CH2CO}-Y[NMeA]NP[X36]L[Hyp]W[X57][Trp(1-CH2COOH)][NMeNle][NMeNle]LCG-NH2; thioether N-14), for which the IC50 was found to be 7 nM. As to `CCCC[C@H]1C(=O)N(C)[C@@H](CCCC)C(=O)N[C@@H](CC(C)C)C(=O)N[C@H](C(=O)NCC(N)=O)CSCC(=O)N[C@@H](Cc2ccc(O)cc2)C(=O)N(C)[C@@H](C)C(=O)N[C@@H](CC(N)=O)C(=O)N2CCC[C@H]2C(=O)N[C@@H](CNCC(O)C(O)C(O)CO)C(=O)N[C@@H](CC(C)C)C(=O)N2C[C@H](O)C[C@H]2C(=O)N[C@@H](Cc2c[nH]c3ccccc23)C(=O)N[C@@H](CCNCC(O)C(O)C(O)CO)C(=O)N[C@@H](Cc2cn(CC(=O)O)c3ccccc23)C(=O)N1C` (stereo partly shown) [Example 2001] ({CH2CO}-Y[NMeA]NP[X15]L[Hyp]W[X16][Trp(1-CH2COOH)][NMeNle][NMeNle]LCG-NH2; thioether N-14), the IC50 amounted to 7.8 nM. `CCCC[C@H]1C(=O)N(C)[C@@H](CCCC)C(=O)N[C@@H](CC(C)C)C(=O)N[C@H](C(=O)NCC(N)=O)CSCC(=O)N[C@@H](Cc2ccc(O)cc2)C(=O)N(C)[C@@H](C)C(=O)N[C@@H](CC(N)=O)C(=O)N2CCC[C@H]2C(=O)N[C@@H](CNC[C@H](O)[C@@H](O)[C@@H](O)[C@H](O)CO)C(=O)N[C@@H](CC(C)C)C(=O)N2C[C@H](O)C[C@H]2C(=O)N[C@@H](Cc2c[nH]c3ccccc23)C(=O)N[C@@H](CCNC[C@H](O)[C@@H](O)[C@@H](O)[C@H](O)CO)C(=O)N[C@@H](Cc2cn(CC(=O)O)c3ccccc23)C(=O)N1C` [Example 2026] ({CH2CO}-Y[NMeA]NP[X11]L[Hyp]W[X63][Trp(1-CH2COOH)][NMeNle][NMeNle]LCG-NH2; thioether N-14): the IC50 was 1.8 nM. Compared with the last compound, the IC50 is about 4.3-fold lower.
